Laboratory results: PubChem BioAssay AID1845201 (Molecular Pharmacology Branch, DTP, NCI, 2023)

Test system: COR L88 complex tumor spheroid viability
Experiment: Anticancer human tumor COR L88 cell line growth inhibition;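 note: compound exposure lasted 7 days before viability readout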;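 for viability, T/C: percent of DMSO vehicle-treated spheroids = 100%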
Details: for IC50: curve of first compound; for viability, T/C: stronger effect = lower value
Source text: Multicellular complex tumor spheroid response to DNA repair inhibitors in combination with DNA-damaging drugs
This study explores the anticancer activities of DNA-damaging drugs and inhibitors of DNA damage repair, both as single agents and in combinations. Complex tumor spheroids comprised of malignant cells, endothelial cells and mesenchymal stem cells served as an in vitro model for human solid tumors. This model system incorporates physiologically relevant features and patient-derived or established malignant cell lines with clinically relevant genetic alterations from many tumor types. Twenty-six patient-derived or established malignant cell lines were evaluated representing sarcoma, melanoma, small cell lung cancer (SCLC), non-small cell lung cancer (NSCLC), as well as bladder, ovarian and pancreatic cancers. The concentration ranges selected for each drug and investigational agent were based upon clinically achievable concentrations if the clinical Cmax of the agent was known.
Compounds. The drugs and compounds olaparib (NSC753686), talazoparib (NSC767125), berzosertib (NSC777718), elimusertib (NSC800525), nedisertib (NSC802822), VX-984 (NSC792969), AZD-1390 (NSC803789), temozolomide (NSC362856), topotecan (NSC609699), trabectedin (NSC813783), staurosporine (NSC755774), and gemcitabine (NSC613327) were obtained from the National Cancer Institute (NCI) Developmental Therapeutics Program Chemical Repository. The FDA-approved anticancer drug set is available from the Developmental Therapeutics Program at https://dtp.cancer.gov/organization/dscb/obtaining/available_plates.htm. […] The stock solutions were prepared in dimethyl sulfoxide (DMSO, Sigma-Aldrich, St. Louis, MO, cat. D2650) at 400-fold the tested concentration and stored at -70 degrees C. Prior to their use, the stock solutions were diluted in fresh medium and the final DMSO concentration in the assay was 0.25% (v/v). All drugs and investigational agents were tested over a range starting from a high concentration at or near the clinical Cmax and decreasing in half-log increments. If the clinical Cmax for an agent had not been determined, the highest concentration tested was 10 microM.
Cell Lines. The patient-derived cancer cell (PDC) lines: 156681-154-R-J1-PDC, 283228-195-R-J1-PDC, 287954-098-R-J1-PDC, 292921-168-R-J2-PDC, 349418-098-R-PDC, 425362-245-T-J1-PDC, 556581-035-R-J1-PDC, and BL0293-F563-PDC were received from the NCI Patient-Derived Models Repository (PDMR, https://pdmr.cancer.gov). The established cell lines HS-SY-2 (RRID:CVCL_8719), MPNST, and SYO-1 (RRID:CVCL_7146) were obtained from the Sloan Kettering Institute. The alveolar soft parts sarcoma cell line ASPS-1 (RRID:CVCL_S738) was established at the NCI and grown from internal seed stocks. The following established cell lines were purchased from the American Type Culture Collection (ATCC, Manassas, VA): G-401 (ATCC, cat. CRL-1441, RRID:CVCL_0270), SW982 (ATCC, cat. HTB-93, RRID:CVCL_1734), VA-ES-BJ (ATCC, cat. CRL-2138, RRID:CVCL_1785), NCI-H719 (ATCC, cat. CRL-5837, RRID:CVCL_1582), NCI-H196 (ATCC, cat. CRL-5823, RRID:CVCL_1509), NCI-H841 (ATCC, cat. CRL-5845, RRID:CVCL_1595), NCI-H1618 (ATCC, cat. CRL-5879, RRID:CVCL_1480), NCI-H1876 (ATCC, cat. CRL-5902, RRID:CVCL_1503), DMS 114 (ATCC, cat. CRL-2066; RRID:CVCL_1174), NCI-H211 (ATCC, cat. CRL-5824; RRID:CVCL_1529), and SW 1271 (ATCC, cat. CRL-2177, RRID:CVCL_1716). The small cell lung cancer cell line COR-L88 was purchased from Sigma-Aldrich (cat. 92031917-1VL, RRID:CVCL_1141). The non-small cell lung cancer cell lines NCI-H226 (RRID:CVCL_1544) and NCI-H322M (RRID:CVCL_1557) were established at the NCI and grown from internal seed stocks. Pooled donor human umbilical vein endothelial cells (HUVEC, Lonza, cat. CC-2519) and human mesenchymal stem cells (hMSC, Lonza, cat. PT-2501) were purchased from Lonza (Walkersville, MD).
Cell Culture. All cells were maintained in an incubator at 37 degrees C and 5% CO2 with 95% humidity. […]

COc1cc(C)[nH]c(=O)c1CN1CCc2c(Cl)cc(C(OC)C3COC3)c(Cl)c2C1=O (stereo not given) + CC[C@@]1(O)C(=O)OCc2c1cc1n(c2=O)Cc2cc3c(CN(C)C)c(O)ccc3nc2-1
IC50 (second compound 0.003 µM): > 10000 nM | IC50 (second compound 0.00949 µM): > 10000 nM | IC50 (second compound 0.03 µM): < 31.6 nM | IC50 (second compound 0.0949 µM): < 31.6 nM | IC50 (second compound 0.3 µM): < 31.6 nM | viability, T/C (second compound 0.003 µM, first compound 0.0316 µM): 87% | viability, T/C (second compound 0.003 µM, first compound 0.1 µM): 90.9% | viability, T/C (second compound 0.003 µM, first compound 0.316 µM): 83.5% | viability, T/C (second compound 0.003 µM, first compound 1 µM): 85.4% | viability, T/C (second compound 0.003 µM, first compound 3.16 µM): 86.5% | viability, T/C (second compound 0.003 µM, first compound 10 µM): 75% | viability, T/C (second compound 0.00949 µM, first compound 0.0316 µM): 65.7% | viability, T/C (second compound 0.00949 µM, first compound 0.1 µM): 53.2% | viability, T/C (second compound 0.00949 µM, first compound 0.316 µM): 53.3% | viability, T/C (second compound 0.00949 µM, first compound 1 µM): 50.9% | viability, T/C (second compound 0.00949 µM, first compound 3.16 µM): 49% | viability, T/C (second compound 0.00949 µM, first compound 10 µM): 52.7% | viability, T/C (second compound 0.03 µM, first compound 0.0316 µM): 43.3% | viability, T/C (second compound 0.03 µM, first compound 0.1 µM): 44.3% | viability, T/C (second compound 0.03 µM, first compound 0.316 µM): 38.7% | viability, T/C (second compound 0.03 µM, first compound 1 µM): 39.2% | viability, T/C (second compound 0.03 µM, first compound 3.16 µM): 35.5% | viability, T/C (second compound 0.03 µM, first compound 10 µM): 17.1% | viability, T/C (second compound 0.0949 µM, first compound 0.0316 µM): 46.2% | viability, T/C (second compound 0.0949 µM, first compound 0.1 µM): 43.8% | viability, T/C (second compound 0.0949 µM, first compound 0.316 µM): 41.2% | viability, T/C (second compound 0.0949 µM, first compound 1 µM): 45.5% | viability, T/C (second compound 0.0949 µM, first compound 3.16 µM): 38.2% | viability, T/C (second compound 0.0949 µM, first compound 10 µM): 19.1% | viability, T/C (second compound 0.3 µM, first compound 0.0316 µM): 47.6% | viability, T/C (second compound 0.3 µM, first compound 0.1 µM): 46.1% | viability, T/C (second compound 0.3 µM, first compound 0.316 µM): 41.2% | viability, T/C (second compound 0.3 µM, first compound 1 µM): 42.8% | viability, T/C (second compound 0.3 µM, first compound 3.16 µM): 41.2% | viability, T/C (second compound 0.3 µM, first compound 10 µM): 37.5%

O=C(c1cc(Cc2n[nH]c(=O)c3ccccc23)ccc1F)N1CCN(C(=O)C2CC2)CC1 + CC[C@@]1(O)C(=O)OCc2c1cc1n(c2=O)Cc2cc3c(CN(C)C)c(O)ccc3nc2-1
IC50 (second compound 0.003 µM): 9730 nM | IC50 (second compound 0.00949 µM): 9850 nM | IC50 (second compound 0.03 µM): 282 nM | IC50 (second compound 0.0949 µM): < 94.9 nM | IC50 (second compound 0.3 µM): < 94.9 nM | viability, T/C (second compound 0.003 µM, first compound 0.0949 µM): 89% | viability, T/C (second compound 0.003 µM, first compound 0.3 µM): 85.6% | viability, T/C (second compound 0.003 µM, first compound 0.949 µM): 85.3% | viability, T/C (second compound 0.003 µM, first compound 3 µM): 66% | viability, T/C (second compound 0.003 µM, first compound 9.49 µM): 51.3% | viability, T/C (second compound 0.003 µM, first compound 30 µM): 45.6% | viability, T/C (second compound 0.00949 µM, first compound 0.0949 µM): 62.3% | viability, T/C (second compound 0.00949 µM, first compound 0.3 µM): 56.2% | viability, T/C (second compound 0.00949 µM, first compound 0.949 µM): 57.3% | viability, T/C (second compound 0.00949 µM, first compound 3 µM): 57.5% | viability, T/C (second compound 0.00949 µM, first compound 9.49 µM): 47.3% | viability, T/C (second compound 0.00949 µM, first compound 30 µM): 45.8% | viability, T/C (second compound 0.03 µM, first compound 0.0949 µM): 51.3% | viability, T/C (second compound 0.03 µM, first compound 0.3 µM): 50.1% | viability, T/C (second compound 0.03 µM, first compound 0.949 µM): 48.3% | viability, T/C (second compound 0.03 µM, first compound 3 µM): 48% | viability, T/C (second compound 0.03 µM, first compound 9.49 µM): 45.9% | viability, T/C (second compound 0.03 µM, first compound 30 µM): 45.8% | viability, T/C (second compound 0.0949 µM, first compound 0.0949 µM): 45.7% | viability, T/C (second compound 0.0949 µM, first compound 0.3 µM): 44% | viability, T/C (second compound 0.0949 µM, first compound 0.949 µM): 44.3% | viability, T/C (second compound 0.0949 µM, first compound 3 µM): 41.9% | viability, T/C (second compound 0.0949 µM, first compound 9.49 µM): 40.3% | viability, T/C (second compound 0.0949 µM, first compound 30 µM): 33% | viability, T/C (second compound 0.3 µM, first compound 0.0949 µM): 41.4% | viability, T/C (second compound 0.3 µM, first compound 0.3 µM): 41% | viability, T/C (second compound 0.3 µM, first compound 0.949 µM): 39% | viability, T/C (second compound 0.3 µM, first compound 3 µM): 32.6% | viability, T/C (second compound 0.3 µM, first compound 9.49 µM): 24.4% | viability, T/C (second compound 0.3 µM, first compound 30 µM): 18.5%
